Several values for one entry are separate records, joined by “and”; a condition that tells them apart may be missing. Equal entries are not always repeated. Toxic doses and inconclusive results are not listed.
Tested on: L1210 leukemia ip in BDF1 mice, survival T/C
Assay: NCI In Vivo Anticancer Drug Screen. Data for tumor model L1210 Leukemia (intraperitoneal) in B6D2F1 (BDF1) mice
Settings: endpoint: mean survival time, higher = longer survival
How it was run: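 Each compound was tested against a transplantable tumor grown in mice. The endpoint was survival, with treated animals benchmarked against vehicle controls as a simple ratio.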

## OC(CBr)C(O)C(O)C(O)CBr (centres undefined)
dose: 266.0 mg/kg/injection, schedule: Q01DX001 (ip), vehicle: acetone
  T/C: 189 % of control
dose: 266.0 mg/kg/injection, schedule: Q01DX001 (ip), vehicle: saline
  T/C: 102 % of control
dose: 266.0 mg/kg/injection, schedule: Q01DX009 (ip), vehicle: acetone
  T/C: 110 % of control
dose: 266.0 mg/kg/injection, schedule: Q04DX003 (ip), vehicle: acetone
  T/C: 108 % of control
dose: 266.0 mg/kg/injection, schedule: Q04DX003 (ip), vehicle: saline
  T/C: 100 % of control and 98 % of control
dose: 266.0 mg/kg/injection, schedule: Q08DX002 (ip), vehicle: acetone
  T/C: 102 % of control
dose: 266.0 mg/kg/injection, schedule: Q08DX002 (ip), vehicle: saline
  T/C: 100 % of control
dose: 360.0 mg/kg/injection, schedule: Q01DX009 (ip), vehicle: saline
  T/C: 104 % of control
dose: 400.0 mg/kg/injection, schedule: Q01DX001 (ip), vehicle: acetone
  T/C: 110 % of control
dose: 400.0 mg/kg/injection, schedule: Q01DX001 (ip), vehicle: other
  T/C: 105 % of control
dose: 400.0 mg/kg/injection, schedule: Q01DX001 (ip), vehicle: saline
  T/C: 101 % of control and 104 % of control
dose: 400.0 mg/kg/injection, schedule: Q01DX009 (ip), vehicle: acetone
  T/C: 113 % of control
dose: 400.0 mg/kg/injection, schedule: Q01DX009 (ip), vehicle: other
  T/C: 97 % of control
dose: 400.0 mg/kg/injection, schedule: Q04DX003 (ip), vehicle: acetone
  T/C: 112 % of control
dose: 400.0 mg/kg/injection, schedule: Q04DX003 (ip), vehicle: saline
  T/C: 102 % of control
dose: 400.0 mg/kg/injection, schedule: Q08DX002 (ip), vehicle: acetone
  T/C: 103 % of control
dose: 400.0 mg/kg/injection, schedule: Q08DX002 (ip), vehicle: saline
  T/C: 102 % of control
dose: 480.0 mg/kg/injection, schedule: Q01DX009 (sc), vehicle: carboxymethylcellulose (CMC)
  T/C: 93 % of control
dose: 480.0 mg/kg/injection, schedule: Q## X008 (ip), vehicle: carboxymethylcellulose (CMC)
  T/C: 94 % of control
dose: 500.0 mg/kg/injection, schedule: Q01DX001 (ip), vehicle: carboxymethylcellulose (CMC)
  T/C: 96 % of control and 100 % of control and 93 % of control
dose: 500.0 mg/kg/injection, schedule: Q01DX009 (ip), vehicle: carboxymethylcellulose (CMC)
  T/C: 105 % of control
dose: 500.0 mg/kg/injection, schedule: Q01DX015 (ip), vehicle: saline
  T/C: 110 % of control
dose: 500.0 mg/kg/injection, schedule: Q01DX Z (ip), vehicle: carboxymethylcellulose (CMC)
  T/C: 94 % of control and 104 % of control
dose: 500.0 mg/kg/injection, schedule: Q02DX005 (ip), vehicle: carboxymethylcellulose (CMC)
  T/C: 108 % of control
dose: 500.0 mg/kg/injection, schedule: Q04DX003 (ip), vehicle: carboxymethylcellulose (CMC)
  T/C: 95 % of control
dose: 540.0 mg/kg/injection, schedule: Q01DX009 (ip), vehicle: saline
  T/C: 111 % of control
dose: 600.0 mg/kg/injection, schedule: Q01DX001 (ip), vehicle: acetone
  T/C: 100 % of control
dose: 600.0 mg/kg/injection, schedule: Q01DX001 (ip), vehicle: saline
  T/C: 104 % of control
dose: 600.0 mg/kg/injection, schedule: Q01DX009 (ip), vehicle: acetone
  T/C: 113 % of control
dose: 600.0 mg/kg/injection, schedule: Q04DX003 (ip), vehicle: acetone
  T/C: 123 % of control
dose: 600.0 mg/kg/injection, schedule: Q04DX003 (ip), vehicle: saline
  T/C: 102 % of control
dose: 600.0 mg/kg/injection, schedule: Q08DX002 (ip), vehicle: acetone
  T/C: 103 % of control
dose: 600.0 mg/kg/injection, schedule: Q08DX002 (ip), vehicle: saline
  T/C: 102 % of control
dose: 800.0 mg/kg/injection, schedule: Q01DX001 (ip), vehicle: other
  T/C: 109 % of control
dose: 900.0 mg/kg/injection, schedule: Q01DX001 (ip), vehicle: acetone
  T/C: 108 % of control
dose: 900.0 mg/kg/injection, schedule: Q01DX001 (ip), vehicle: saline
  T/C: 105 % of control
dose: 900.0 mg/kg/injection, schedule: Q04DX003 (ip), vehicle: acetone
  T/C: 100 % of control
dose: 900.0 mg/kg/injection, schedule: Q04DX003 (ip), vehicle: saline
  T/C: 105 % of control
dose: 900.0 mg/kg/injection, schedule: Q08DX002 (ip), vehicle: acetone
  T/C: 100 % of control
dose: 900.0 mg/kg/injection, schedule: Q08DX002 (ip), vehicle: saline
  T/C: 94 % of control
dose: 1000.0 mg/kg/injection, schedule: Q01DX001 (ip), vehicle: carboxymethylcellulose (CMC)
  T/C: 100 % of control and 104 % of control and 94 % of control
dose: 1000.0 mg/kg/injection, schedule: Q01DX015 (ip), vehicle: saline
  T/C: 121 % of control
dose: 1000.0 mg/kg/injection, schedule: Q04DX003 (ip), vehicle: carboxymethylcellulose (CMC)
  T/C: 113 % of control
dose: 1440.0 mg/kg/injection, schedule: Q## X003 (oral), vehicle: carboxymethylcellulose (CMC)
  T/C: 96 % of control

Reference: PubChem BioAssay AID248 (DTP/NCI, 2004)
